Source: ChEMBL document CHEMBL5653594, “ZD1839 (Iressa): an orally active inhibitor of epidermal growth factor signaling with potential for cancer therapy” (Cancer Res, 2002)

How the values were obtained:
[1] = tested on: A-431; assay: Antitumor activity against human A-431 cells xenografted in Swiss nu/nu mouse assessed as reduction in c-fos mRNA expression at 200 mg/kg measured after 36 hrs by RT-PCR analysis relative to control; format: functional; set-up: scale not given: the % may be the effect or the level left
[2] = tested on: A-431; assay: Antitumor activity against human A-431 cells xenografted in Swiss nu/nu mouse assessed as reduction in c-fos mRNA expression at 50 mg/kg measured after 36 hrs by RT-PCR analysis relative to control; format: functional; set-up: scale not given: the % may be the effect or the level left
[3] = tested on: A-431; assay: Antitumor activity against human A-431 cells xenografted in po dosed Swiss nu/nu mouse assessed as reduction in c-fos mRNA expression measured after 4 days by RT-PCR analysis; format: functional, organism-based; conditions: dose 12.5-200 mg/kg, time 4.0 day
[4] = tested on: A-431; assay: Antitumor activity against human A-431 cells xenografted in Swiss nu/nu mouse assessed as c-fos mRNA expression at 50 mg/kg measured after 6 to 36 hrs by RT-PCR analysis relative to control; format: functional; conditions: time 6-36 hrs

For COc1cc2ncnc(Nc3ccc(F)c(Cl)c3)c2cc1OCCCN1CCOCC1 [GEFITINIB], the Activity [1] was greater than 99%, the Activity [2] was 94% and the Activity [3] was “Dose-Dependent Effect”. The Activity [4] was 5%.
